Here are results for one compound from ChEMBL document CHEMBL5214967, “Natural Product-Inspired Targeted Protein Degraders: Advances and Perspectives” (J Med Chem, 2022).

The assay has as its system SU-DHL-1. The assay can be described thus: Cytotoxicity against human SU-DHL-1 cells incubated for 72 hrs by CCK-8 assay. The assay is classed as functional, cell-based. Conditions: SU-DHL-1, 72 h. A general note: Formazan colour is commonly taken as a measure of viable cells.

Usually IC50 stands for the concentration that inhibits the measured activity by half. The low end stands for greater potency in that assay, the high end for weaker potency in that assay.

With `Cc1cc(Nc2ncc(N)c(Nc3ccccc3S(=O)(=O)C(C)C)n2)c(OC(C)C)cc1C1CCN(C(=O)CCCC(=O)N[C@@H](C(=O)N2C[C@H](OC(=O)CCCCn3cc(CNC(=O)CCC(NC(=O)c4ccc(NCc5cnc6nc(N)[nH]c(=O)c6n5)cc4)C(=O)O)nn3)C[C@H]2C(=O)N[C@@H](C)c2ccc(-c3scnc3C)cc2)C(C)(C)C)CC1` (stereo partly specified), the IC50 was found to be 200 nM.
